Source: ChEMBL document CHEMBL5584309, “Discovery of Novel Mcl-1 Inhibitors with a 3-Substituted-1H-indole-1-yl Moiety Binding to the P1-P3 Pockets to Induce Apoptosis in Acute Myeloid Leukemia Cells” (J Med Chem, 2024)
The source made the active and inactive calls. The calls are words filed in the database; no cut-off is given here.

Key:
[1] = Metabolic stability in rat plasma assessed as compound remaining measured after 10 mins by LC-MS/MS analysis; assay type: ADME, cell-free; settings: read-out: Stability
[2] = test system: THP-1; assay: Induction of apoptosis in human THP-1 cells assessed as viable cells at 20 uM measured after 24 hrs by Annexin V-FITC/propidium iodide double staining based assay (reference value: 93.02%); assay type: functional; settings: read-out: Activity
[3] = Metabolic stability in rat liver microsomes assessed as compound remaining measured after 45 mins by LC-MS/MS analysis; assay type: ADME, Microsome; settings: read-out: Stability
[4] = Metabolic stability in rat plasma assessed as compound remaining measured after 60 mins by LC-MS/MS analysis; assay type: ADME, cell-free; settings: read-out: Stability
[5] = test system: THP-1; assay: Antiproliferative activity against human THP-1 cells assessed as growth inhibition measured after 72 hrs by CCK-8 assay; assay type: functional, cell-based; settings: THP-1, 72 h
[6] = test system: HL-60; assay: Induction of apoptosis in human HL-60 cells assessed as early apoptotic cells at 5 uM measured after 24 hrs by Annexin V-FITC/propidium iodide double staining based assay (reference value: 3.37%); assay type: functional
[7] = Metabolic stability in rat liver microsomes assessed as compound remaining measured after 15 mins by LC-MS/MS analysis; assay type: ADME, Microsome; settings: read-out: Stability
[8] = test system: HL-60; assay: Induction of apoptosis in human HL-60 cells assessed as viable cells at 10 uM measured after 24 hrs by Annexin V-FITC/propidium iodide double staining based assay (reference value: 92.68%); assay type: functional; settings: read-out: Activity
[9] = Metabolic stability in rat liver microsomes assessed as compound remaining measured after 60 mins by LC-MS/MS analysis; assay type: ADME, Microsome; settings: read-out: Stability
[10] = test system: HL-60; assay: Induction of apoptosis in human HL-60 cells assessed as early apoptotic cells at 2.5 uM measured after 24 hrs by Annexin V-FITC/propidium iodide double staining based assay (reference value: 3.37%); assay type: functional
[11] = Metabolic stability in rat plasma assessed as compound remaining measured immediately after addition of compound by LC-MS/MS analysis; assay type: ADME, cell-free; settings: read-out: Stability
[12] = Metabolic stability in rat plasma assessed as compound remaining measured after 30 mins by LC-MS/MS analysis; assay type: ADME, cell-free; settings: read-out: Stability
[13] = test system: THP-1; assay: Induction of apoptosis in human THP-1 cells assessed as early apoptotic cells at 5 uM measured after 24 hrs by Annexin V-FITC/propidium iodide double staining based assay (reference value: 4.04%); assay type: functional
[14] = molecular target: T1, Induced myeloid leukemia cell differentiation protein Mcl-1 (Homo sapiens, UniProt Q07820); assay: Inhibition of Mcl-1 in human THP-1 cells assessed as dissociation of Bim from Mcl-1 at 20 uM measured after 24 hrs by Co-immunoprecipitation (Co-IP) assay; assay type: cell-based
[15] = test system: HL-60; assay: Antiproliferative activity against human HL-60 cells assessed as growth inhibition measured after 72 hrs by CCK-8 assay; assay type: functional, cell-based; settings: HL-60, 72 h
[16] = test system: HL-60; assay: Induction of apoptosis in human HL-60 cells assessed as late apoptotic cells at 2.5 uM measured after 24 hrs by Annexin V-FITC/propidium iodide double staining based assay (reference value: 3.78%); assay type: functional
[17] = test system: THP-1; assay: Induction of apoptosis in human THP-1 cells assessed as early apoptotic cells at 10 uM measured after 24 hrs by Annexin V-FITC/propidium iodide double staining based assay (reference value: 4.04%); assay type: functional
[18] = Metabolic stability in rat liver microsomes assessed as compound remaining measured after 5 mins by LC-MS/MS analysis; assay type: ADME, Microsome
[19] = Metabolic stability in rat liver microsomes assessed as intrinsic clearance by LC-MS/MS analysis; assay type: ADME, Microsome; settings: read-out: CLH
[20] = Metabolic stability in rat liver microsomes assessed as compound remaining measured after 30 mins by LC-MS/MS analysis; assay type: ADME, Microsome; settings: read-out: Stability
[21] = test system: HL-60; assay: Induction of apoptosis in human HL-60 cells assessed as necrotic cells at 10 uM measured after 24 hrs by Annexin V-FITC/propidium iodide double staining based assay (reference value: 0.18%); assay type: functional
[22] = test system: THP-1; assay: Induction of apoptosis in human THP-1 cells assessed as viable cells at 10 uM measured after 24 hrs by Annexin V-FITC/propidium iodide double staining based assay (reference value: 93.02%); assay type: functional; settings: read-out: Activity
[23] = Metabolic stability in rat liver microsomes assessed as half life by LC-MS/MS analysis; assay type: ADME, Microsome
[24] = molecular target: Bcl-2-like protein 1 (Homo sapiens, UniProt Q07817); assay: Binding affinity to Bcl-xL (unknown origin) pre-incubated for 30 mins followed by addition FAM-peptide further incubated for 20 mins by fluorescence polarization-based binding assay
[25] = test system: HL-60; assay: Induction of apoptosis in human HL-60 cells assessed as late apoptotic cells at 5 uM measured after 24 hrs by Annexin V-FITC/propidium iodide double staining based assay (reference value: 3.78%); assay type: functional
[26] = test system: HL-60; assay: Induction of apoptosis in human HL-60 cells assessed as viable cells at 5 uM measured after 24 hrs by Annexin V-FITC/propidium iodide double staining based assay (reference value: 92.68%); assay type: functional; settings: read-out: Activity
[27] = Metabolic stability in rat plasma assessed as compound remaining measured after 120 mins by LC-MS/MS analysis; assay type: ADME, cell-free; settings: read-out: Stability
[28] = molecular target: Apoptosis regulator Bcl-2 (Homo sapiens, UniProt P10415); assay: Binding affinity to Bcl-2 (unknown origin) pre-incubated for 30 mins followed by addition FAM-peptide further incubated for 20 mins by fluorescence polarization-based binding assay
[29] = molecular target: T1, Induced myeloid leukemia cell differentiation protein Mcl-1; assay: Binding affinity to Mcl-1 (unknown origin) pre-incubated for 30 mins followed by addition FAM-peptide further incubated for 20 mins by fluorescence polarization-based binding assay; settings: read-out: Ki
[30] = test system: HL-60; assay: Induction of apoptosis in human HL-60 cells assessed as early apoptotic cells at 10 uM measured after 24 hrs by Annexin V-FITC/propidium iodide double staining based assay (reference value: 3.37%); assay type: functional
[31] = test system: THP-1; assay: Induction of apoptosis in human THP-1 cells assessed as early apoptotic cells at 20 uM measured after 24 hrs by Annexin V-FITC/propidium iodide double staining based assay (reference value: 4.04%); assay type: functional
[32] = test system: HL-60; assay: Induction of apoptosis in human HL-60 cells assessed as late apoptotic cells at 10 uM measured after 24 hrs by Annexin V-FITC/propidium iodide double staining based assay (reference value: 3.78%); assay type: functional
[33] = test system: THP-1; assay: Induction of apoptosis in human THP-1 cells assessed as late apoptotic cells at 10 uM measured after 24 hrs by Annexin V-FITC/propidium iodide double staining based assay (reference value: 2.81%); assay type: functional
[34] = test system: THP-1; assay: In vivo antitumor activity against human THP-1 cells xenografted in female NOD SCID mouse assessed as tumor growth inhibition at 80 mg/kg, ip once daily after 10 days of tumor inoculation treated for 14 days relative to control; assay type: functional; settings: THP-1, 336 h, time 14 day, read-out: TGI
[35] = test system: THP-1; assay: Induction of apoptosis in human THP-1 cells assessed as necrotic cells at 20 uM measured after 24 hrs by Annexin V-FITC/propidium iodide double staining based assay (reference value: 0.13%); assay type: functional

T1 sequence (Q07820 whole entry): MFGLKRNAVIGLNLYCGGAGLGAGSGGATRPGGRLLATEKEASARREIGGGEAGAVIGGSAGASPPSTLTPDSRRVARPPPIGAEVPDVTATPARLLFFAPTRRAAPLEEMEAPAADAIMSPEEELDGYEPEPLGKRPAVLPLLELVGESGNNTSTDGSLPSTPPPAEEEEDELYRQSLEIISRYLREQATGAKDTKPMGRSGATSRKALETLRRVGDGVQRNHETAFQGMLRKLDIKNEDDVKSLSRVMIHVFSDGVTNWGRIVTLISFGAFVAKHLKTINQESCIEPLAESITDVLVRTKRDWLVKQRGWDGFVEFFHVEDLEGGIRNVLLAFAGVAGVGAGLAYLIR
Chain of Bcl-2-like protein 1 (Q07817 whole entry): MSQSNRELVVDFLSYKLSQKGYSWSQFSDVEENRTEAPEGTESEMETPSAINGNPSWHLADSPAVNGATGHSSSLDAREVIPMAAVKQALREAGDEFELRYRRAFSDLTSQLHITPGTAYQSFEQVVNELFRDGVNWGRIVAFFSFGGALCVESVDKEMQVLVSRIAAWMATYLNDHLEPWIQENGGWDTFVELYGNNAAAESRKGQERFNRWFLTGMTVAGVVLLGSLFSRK
Chain of Apoptosis regulator Bcl-2 (P10415 whole entry): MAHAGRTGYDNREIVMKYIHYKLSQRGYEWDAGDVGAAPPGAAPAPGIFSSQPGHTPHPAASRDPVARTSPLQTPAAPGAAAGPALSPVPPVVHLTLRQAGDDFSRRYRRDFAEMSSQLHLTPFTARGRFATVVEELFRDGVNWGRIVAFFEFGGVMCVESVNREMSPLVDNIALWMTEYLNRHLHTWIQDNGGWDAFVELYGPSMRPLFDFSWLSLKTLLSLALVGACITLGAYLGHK

remaining at 10 min [1] | remaining at 0.75 h [3] | remaining at 1 h [4] | IC50 [5] | remaining at 0.25 h [7] | remaining at 1 h [9] | remaining at 0 min [11] | remaining at 0.5 h [12] | Activity [14] | IC50 [15] | microsomal CLint [19] | remaining at 0.5 h [20] | SMILES | viability at 20 µM [2] | Activity [6] | viability at 10 µM [8] | Activity [10] | Activity [13] | Activity [16] | Activity [17] | Activity [21] | also measured
101% | 46% | 94.8% | 8.83 µM | 67.4% | 34.1% | 100% | 87.7% | Active | 5.2 µM | 30.6 µL/min/mg | 53% | Cc1cc(OCCCc2c(C(=O)O)n(CCN3CCOCC3)c3c(-c4ccccc4Cn4cc(CCN(CCN5CCOCC5)S(=O)(=O)c5ccc(F)cc5)c5ccccc54)cccc23)cc(C)c1Cl | 68.6% | 4.06% | 41.2% | 3.06% | 4.1% | 3.95% | 4.14% | 0.2% | Stability ([18]; microsomes, 5 min): 69.3%; viability at 10 µM [22]: 91.2%; t1/2 ([23]; microsomes): 45.3 min; IC50 [24]: > 100 µM; Activity [25]: 13.47%; viability at 5 µM [26]: 81.9%; remaining at 2 h [27]: 82.1%; IC50 [28]: > 100 µM; Ki [29]: 0.024 µM; Activity [30]: 12.51%; Activity [31]: 24.61%; Activity [32]: 46.1%; Activity [33]: 4.12%; inhibition in vivo at 80 mg/kg [34]: 57.4%; Activity [35]: 0.52%
93.3% | 43.7% | 106% | 5.65 µM | 67.6% | 31.6% | 100% | 104% | Active | 5.53 µM | 34.9 µL/min/mg | 51.8% | Cc1nn(C)c(COc2ccc(N3CCN(S(=O)(=O)N(C)C)CC3)cc2)c1-c1cccc2c(CCCOc3cccc4ccccc34)c(C(=O)O)n(CCN3CCOCC3)c12 | 41.9% | 1.28% | 33% | 0.97% | 3.36% | 2.14% | 4.2% | 4.86% | remaining at 5 min ([18]; liver microsomes, read-out: Stability): 77.1%; viability at 10 µM [22]: 92.9%; half-life ([23]; liver microsomes): 39.7 min; IC50 [24]: > 100 µM; Activity [25]: 4.82%; viability at 5 µM [26]: 92.6%; remaining at 2 h [27]: 114%; IC50 [28]: > 100 µM; Ki [29]: 0.012 µM; Activity [30]: 11.84%; Activity [31]: 33.09%; Activity [32]: 50.33%; Activity [33]: 2.8%; inhibition in vivo at 80 mg/kg [34]: 58.7%; Activity [35]: 0.62%
